In data set [1] the test system is KOPN8 cells. As to the kind of experiment: alamarBlue cytotoxicity assay, 48h. Format: cell-based, human. The conditions noted are these: RPMI + 10% FBS. Here is the method: (§1) Following subtraction of background fluorescence from all wells, fluorescence of drug-treated cells was normalized to that of vehicle (<0.5% DMSO)-treated cells to determine the effect of each drug concentration on viability. Each cell line was tested in triplicate and in at least three independent experiments. IC50 (concentration that inhibits cell growth by 50%) values were calculated using CompuSyn software (ComboSyn, Paramus, NJ). […] In addition several cell lines were initially cultured and tested in alternative media (Supplementary Table S2). […] Colony counts were normalized to vehicle-treated controls (100%). Three independent experiments were performed.
(§2) In most experiments, cytotoxicity was assessed using alamarBlue assays (Life Technologies, Grand Island, NY). In experiments using NAC and DFO, which can interfere with alamarBlue assay performance, Trypan Blue dye exclusion was used instead. […]
(§3) experiments performed in triplicate. […] Age refers to age […]
(§4) at the time of leukemia diagnosis of the patient from whom the cell line was derived. (–) Indicates information unavailable.
(§5) *Cell lines with FLT3/ITD mutations.
(§6) *The MV-4–11 cell line was derived from a patient with a biphenotypic B-myelomonocytic leukemia; K562 was derived […]
(§7) 1A. p53 status was obtained from http://cancer.sanger.ac.uk/cell_lines/cbrowse/all and http://p53.free.fr/Database/Cancer_ cell_lines/Leukemia_cancer. html. WT: wild type. Mut: mutant. SM: single mutation. DM: double mutation. MM: multiple mutations. Fs: Frameshift mutation. Null: protein expression undetectable. […]
(§8) measured via alamarBlue assay. […]

Data set [2] has as its system MOLM14 cells. As to the kind of experiment: alamarBlue cytotoxicity assay, 48h. Format: cell-based, human. The conditions noted are these: MOLM14 (AML), 48h, RPMI + 10% FBS. Here is the method:
as §1, §2, §3, §4, §5, §6, §7, §8

Data set [3] relates to MOLM14 cells. As to the kind of experiment: viable cell counts via Trypan Blue dye exclusion, 48h. The settings on record: read-out: approximate 48h IC50. Format: cell-based, human. Here is the method: A. Quantification of the percentage of early apoptotic cells (Annexin-V+/7-AAD-) from three independent experiments in which cells were stained for apoptosis with 7-AAD and Annexin-V then analyzed by flow cytometry. […] C. […] 16h after addition of drugs, cells were washed and analyzed by flow cytometry for CM-H2DCFDA fluorescence (indicating total ROS generation) in the FL1 channel. Mean Fluorescence Intensity (MFI) was normalized to that of vehicle control (0.5% DMSO) with no pretreatment. […] Viable cell counts, obtained via Trypan Blue dye exclusion, were normalized to vehicle (0.02% DMSO)-treated samples +/– pretreatment.
In most experiments, cytotoxicity was assessed using alamarBlue assays (Life Technologies, Grand Island, NY). In experiments using NAC and DFO, which can interfere with alamarBlue assay performance, Trypan Blue dye exclusion was used instead.

Data set [4] in a line: plasma pharmacokinetics after single oral dose. The conditions noted are these: single oral dose AS 200 mg/kg, NSG mice.
Procedure: (§9) Plasma samples were obtained from 3-6 male NSG mice per time point (15min-24h after drug administration). Symbols represent concentrations of compound by LC/MS-MS detection.
(§10) Blood samples were collected via retro-orbital bleeding into EDTA-coated tubes. PK samples were centrifuged to obtain plasma, which was stored frozen (−80°C) until liquid chromatography/triple quadrupole mass spectrometry (LC/MS-MS) analysis.
(§11) were separated using an Agilent Zorbax Eclipse C18 column (2.1 mm x 50 mm, 3.5 μm) using gradient mobile phase
(§12) (acetonitrile and 2 mM ammonium acetate both containing 0.1% formic acid) and a gradient flow rate (0.2 to 0.4 ml/
(§13) min). An AB Sciex 5500 triple quadrupole mass spectrometer was used for detection. The m/z transitions used were
(§14) The calibration range was 5–1,000 ng/mL for all analytes. Mean drug concentrations were calculated at each time point. PK parameters (plasma
(§15) half-life [T1/2]; time to reach Cmax [Tmax]; maximum plasma concentration [Cmax]; area under the plasma concentration-
(§16) time curve [AUC] from time zero to the last measurable concentration [AUClast]; AUC from time zero to infinity [i.e.,
(§17) the AUClast + the extrapolated AUC from AUClast to infinity; AUC0–∞]; apparent volume of distribution [Vz/F]; body
(§18) weight-adjusted apparent clearance [CL/F/kg]) were calculated from mean drug concentration-time data using non-
(§19) the r2 of the elimination rate constant (λ ) was < 0.9, the AUC , CL/F, and T were not reported (NR).
Data set [5] can be described thus: in vivo. The conditions noted are these: male, NSG, mouse, plasma, po, 200 mg/kg.
Procedure: as §9, §10, §11, §12, §13, §14, §15, §16, §17, §18, §19
Setting [6] is: Homo sapiens, KOPN-8, KOPN8 (B-ALL).

Data on nine molecules can be found in article PMC4872784 (Oncotarget, 2016).

“And” between values parts separate entries of the source, which are not always exact repeats. Equal entries are not always repeated. Structures can show the parent of a compound that is named as a salt.

As for `Nc1ccn([C@@H]2O[C@H](CO)[C@@H](O)[C@@H]2O)c(=O)n1` [ARA, cytosine arabinoside], the results for the half-inhibitory concentration (IC50) in data set [1] (KOPN8 (B-ALL)) and in data set [2] were 0.073 µM and 0.286 µM, respectively.
Take `CC(=O)N(O)CCCCCNC(=O)CCC(=O)N(O)CCCCCNC(=O)CCC(=O)N(O)CCCCCN` [DFO, deferoxamine mesylate]: the IC50 in data set [3] (Homo sapiens, MOLM-14, 48 h) is approximately 11 µM.
In the case of `C[C@H]1[C@@H](O)O[C@@H]2O[C@@]3(C)CC[C@H]4[C@H](C)CC[C@@H]1[C@@]24OO3` [DHA, dihydroartemisinin], in data set [4] (plasma), the T1/2 is less than 60 min. Moreover, the “time by which plasma declined to undetectable levels” value in data set [4] was not above 4 h. Besides, the IC50 in data set [1] (setting [6]) was 0.351 µM. Moreover, the IC50 in data set [2] (Homo sapiens, MOLM-14) was determined as 1.02 µM. In data set [5], the AUC(0-inf) is 1300 ng·h/mL; the AUC(0-t) worked out at 1290 ng·h/mL; the CL/F is 2050 mL/min/kg; the maximum concentration (Cmax) was 1630 ng/mL and 5.74 µM. Further, in data set [5], the Tmax is 15 min, the Vd/F was determined as 103 L/kg and the half-life is 34.8 min.
As to `COc1cccc2c1C(=O)c1c(O)c3c(c(O)c1C2=O)C[C@@](O)(C(=O)CO)C[C@@H]3O[C@H]1C[C@H](N)[C@H](O)[C@H](C)O1` [DOX, doxorubicin], the IC50 turned out to be 0.03 µM in data set [1] (setting [6]) and 0.079 µM in data set [2] (Homo sapiens, MOLM-14).
Consider `COc1cc([C@@H]2c3cc4c(cc3[C@@H](O[C@@H]3O[C@@H]5CO[C@@H](C)O[C@H]5[C@H](O)[C@H]3O)[C@H]3COC(=O)[C@H]23)OCO4)cc(OC)c1O` [ETO, etoposide], for which the half-maximal inhibitory concentration (IC50) in data set [1] (setting [6]) is 0.15 µM; in data set [2] (Homo sapiens, MOLM-14) it was 0.242 µM.
For `C[C@]12O[C@H](C[C@]1(O)CO)n1c3ccccc3c3c4c(c5c6ccccc6n2c5c31)CNC4=O` [LES, lestaurtinib], the IC50 in data set [1] (setting [6]) was determined as 0.045 µM; in data set [2] (Homo sapiens, MOLM-14), 0.003 µM.
Consider `CO[C@@H]1[C@H](N(C)C(=O)c2ccccc2)C[C@H]2O[C@]1(C)n1c3ccccc3c3c4c(c5c6ccccc6n2c5c31)C(=O)NC4` [MID, midostaurin], for which the IC50 in data set [1] (setting [6]) was determined as 0.21 µM.
Consider `CC(=O)N[C@@H](CS)C(=O)O` [NAC, N-acetyl cysteine], for which the IC50 in data set [3] (MOLM14, preliminary experiments) is approximately 25 µM.
For `CNC(=O)c1cc(Oc2ccc(NC(=O)Nc3ccc(Cl)c(C(F)(F)F)c3)cc2)ccn1` [SOR, sorafenib], the IC50 in data set [1] (setting [6]) was 4.2 µM; in data set [2] (Homo sapiens, MOLM-14), 0.004 µM.
